# Results: patent EP0338042B1, “COMPOSITION AND METHOD FOR TREATING HEPATITIS VIRUS INFECTIONS USING 1-(2'-DEOXY-2'-FLUORO-BETA-D-ARABINOFURANOSYL)-5-ETHYLURACIL” (priority 1987, dated 1989)
# Where “and” joins values, the source holds several entries; their conditions need not be identical. Identical values can stand only once.
# Legend:
# HL-60 CELLS MIT[…] = target: T1, HL-60 CELLS MIT[…] (Homo sapiens, UniProt O00142); assay: Phosphorylation by thymidine kinase relative to thymidine; format: biochemical; conditions: thymidine at 400 µM
# T1 construct: cytosol and mitochondrial TK's derived from the HL-60 human cell line; endogenous in cells; host or cells: HL-60
# T1 sequence (O00142 34-265): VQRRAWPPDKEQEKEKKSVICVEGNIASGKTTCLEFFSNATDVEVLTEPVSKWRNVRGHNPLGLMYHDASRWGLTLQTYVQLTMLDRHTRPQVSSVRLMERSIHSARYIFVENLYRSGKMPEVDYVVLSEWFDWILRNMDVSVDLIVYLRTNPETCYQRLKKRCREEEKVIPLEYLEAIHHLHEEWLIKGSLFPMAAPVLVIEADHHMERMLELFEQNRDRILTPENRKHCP
# From the text: (§1) It is generally accepted that the selective anti-herpes activity of 2′-fluoro-arabinosylpyrimidine nucleosides is associated in large measure with their ability to be recognized as good substrates for HSV-specified thymidine kinase (TK), but not by the host TK (14, 15). […] By contrast, FEAU is a very poor substrate for the host HL-60 derived TKs (13). […] Their data also indicate that, in uninfected Vero cells, FEAU would be phosphorylated at a very low rate in the presence of thymidine.
# HSV-1 (STRAIN KOS) TK = HSV-1 (STRAIN KOS) TK (Human herpesvirus 1, UniProt P17402); assay: as above; format: biochemical; conditions: thymidine at 400 µM
# From the text: as §1
# HSV-2 (STRAIN 333) TK = HSV-2 (STRAIN 333) TK (Human herpesvirus 2, UniProt P04407); assay: as above; format: biochemical; conditions: thymidine at 400 µM
# From the text: as §1
# [1] = system: simian varicella virus (SVV); assay: Simian varicella virus infection in the African green monkey; conditions: for VIREMIA - MEAN PFU ON DAYS P.I. 3: IV twice daily for ten days from 48 hours after inoculation; for VIREMIA - MEAN PFU ON DAYS P.I. 5 / VIREMIA - MEAN PFU ON DAYS P.I. 7 / VIREMIA - MEAN PFU ON DAYS P.I. 9 / VIREMIA - MEAN PFU ON DAYS P.I. 11: IV twice daily for ten days
# [2] = FEAU 3 MG/KG/DAY, one line per monkey
# [3] = FEAU 10 MG/KG/DAY, one line per monkey
# [4] = FEAU 30 MG/KG/DAY, one line per monkey
# Chain of HSV-2 (STRAIN 333) TK (P04407 whole entry): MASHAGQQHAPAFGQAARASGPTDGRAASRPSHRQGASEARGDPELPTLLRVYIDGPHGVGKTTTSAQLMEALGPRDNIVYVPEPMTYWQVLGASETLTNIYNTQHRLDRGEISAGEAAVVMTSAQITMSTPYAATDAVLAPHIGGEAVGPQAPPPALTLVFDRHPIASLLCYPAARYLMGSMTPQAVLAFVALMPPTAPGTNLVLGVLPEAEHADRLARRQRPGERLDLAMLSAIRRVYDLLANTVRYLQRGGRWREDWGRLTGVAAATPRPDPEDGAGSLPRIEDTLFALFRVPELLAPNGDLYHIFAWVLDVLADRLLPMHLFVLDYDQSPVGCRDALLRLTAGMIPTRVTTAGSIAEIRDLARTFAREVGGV
# Chain of HSV-1 (STRAIN KOS) TK (P17402 whole entry, looked up): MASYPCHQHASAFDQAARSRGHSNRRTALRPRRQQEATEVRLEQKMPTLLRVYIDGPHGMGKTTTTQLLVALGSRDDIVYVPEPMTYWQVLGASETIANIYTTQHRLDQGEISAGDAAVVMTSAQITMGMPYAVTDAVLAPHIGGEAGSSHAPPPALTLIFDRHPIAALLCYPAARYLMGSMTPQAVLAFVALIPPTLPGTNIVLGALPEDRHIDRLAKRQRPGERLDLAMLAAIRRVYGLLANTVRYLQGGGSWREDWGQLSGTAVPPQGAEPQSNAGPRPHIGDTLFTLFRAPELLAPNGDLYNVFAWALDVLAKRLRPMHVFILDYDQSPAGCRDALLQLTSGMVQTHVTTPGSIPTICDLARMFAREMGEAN
compound,measurement,setting,value
"CCc1cn([C@@H]2O[C@H](CO)[C@@H](O)[C@@H]2F)c(=O)[nH]c1=O [FEAU, 1-(2'-deoxy-2'-fluoro-beta-D-arabino-furanosyl)-5-ethyl-uracil]","PERCENTAGE RATES OF PHOSPHORYLATION (RELATIVE TO THYMIDINE), HL-60 CELLS MITOCHONDRIAL TK",HL-60 CELLS MIT[…],219.0%
same,"PERCENTAGE RATES OF PHOSPHORYLATION (RELATIVE TO THYMIDINE), HSV-1 (STRAIN KOS) TK",HSV-1 (STRAIN KOS) TK,82.7% and 42.0%
same,"PERCENTAGE RATES OF PHOSPHORYLATION (RELATIVE TO THYMIDINE), HSV-2 (STRAIN 333) TK",HSV-2 (STRAIN 333) TK,203.2% and 146.6%
same,minimal effective dose,"[1]; Cercopithecine alphaherpesvirus 9, in Primates",~1 mg/kg/day
same,RASH -SEVERITY ON DAYS P.I. 9,"[1]; FEAU 1 MG/KG/DAY by stomach tube twice daily for ten days, one line per monkey",±
same,VIREMIA - MEAN PFU ON DAYS P.I. 3,[1]; [2],1 PFU and 0 PFU
same,VIREMIA - MEAN PFU ON DAYS P.I. 5,[1]; [2],8 PFU and 1 PFU
same,VIREMIA - MEAN PFU ON DAYS P.I. 7,[1]; [2],0 PFU and 1 PFU
same,VIREMIA - MEAN PFU ON DAYS P.I. 9,[1]; [2],0 PFU
same,VIREMIA - MEAN PFU ON DAYS P.I. 11,[1]; [2],0 PFU
same,VIREMIA - MEAN PFU ON DAYS P.I. 3,[1]; [3],1 PFU and 0 PFU
same,VIREMIA - MEAN PFU ON DAYS P.I. 5,[1]; [3],14 PFU and 1 PFU
same,VIREMIA - MEAN PFU ON DAYS P.I. 7,[1]; [3],5 PFU and 1 PFU
same,VIREMIA - MEAN PFU ON DAYS P.I. 9,[1]; [3],0 PFU
same,VIREMIA - MEAN PFU ON DAYS P.I. 11,[1]; [3],0 PFU
same,VIREMIA - MEAN PFU ON DAYS P.I. 3,[1]; [4],1 PFU and 2 PFU
same,VIREMIA - MEAN PFU ON DAYS P.I. 5,[1]; [4],0 PFU
same,VIREMIA - MEAN PFU ON DAYS P.I. 7,[1]; [4],0 PFU
same,VIREMIA - MEAN PFU ON DAYS P.I. 9,[1]; [4],0 PFU
same,VIREMIA - MEAN PFU ON DAYS P.I. 11,[1]; [4],0 PFU
same,rash,"[1]; intravenous route, 30, 10 and 3 mg/kg/day x 10",none of the FEAU-treated monkeys developed rash
same,hematology tests and serum chemistries,"[1]; intravenous route, 30, 10 and 3 mg/kg/day x 10, all treated monkeys",normal
same,toxicity,"[1]; intravenous route, three dose levels up to 30 mg/kg/day x 10",no apparent toxicity
same,rash,[1]; lower dose of 1 mg/kg/day,prevented development of rash
same,viremia,[1]; lower dose of 1 mg/kg/day,did not reduce viremia in two of three monkeys
same,viremia,"[1]; oral administration, 10, 3 or 1 mg/kg/day x 10",reduced viremia significantly
same,toxicity,"[1]; oral route, 10 mg/kg/day x 10",without any observed toxicity
